Assay results from article PMC4632323, “Development of a neuroprotective peptide that preserves survival pathways by preventing Kidins220/ARMS calpain processing induced by excitotoxicity” (Cell Death & Disease, 2015).
Where a SMILES comes first, the peptide text is derived from it. Where no end group is shown, it is not given here. The star is where a group is joined. Cbz = O=C(OCc1ccccc1)*

Key:
Kidins220 [1] = experiment: In vitro digestion of neuronal protein extracts with purified calpain I, immunoblot (Kid-Ct); format: biochemical, rat; settings: calpain I 0-80 U/ml, 15 or 30 min, inhibitor 20 μM
Protocol: (c) Protein extracts from cortical neurons subjected to in vitro digestion with purified calpain I (0, 20, 50 or 80 U/ml) for 15 or 30 min in the absence or presence of calpain inhibitor CiIII (20 μM).
Protein extracts from cortical neurons were subjected to in vitro digestion with purified calpain I (20 U/ml) for 15 min in the presence of peptides Tat-K (K) or Tat-S (S) (0.5 μM). Results were analyzed by immunoblot with Kidins220 (Kid-Ct), spectrin and NSE antibodies.

Kidins220 [2] = experiment: Kidins220 calpain processing induced by NMDAR overactivation in cortical neurons, immunoblot; format: cell-based, rat; settings: inhibitor added 1 h before NMDA 100 μM + glycine 10 μM, 4 h; CiIII 20 μM, lactacystin 15 μM; Kid-Nt immunoblot
Protocol: Figure 1 Approximate mapping of Kidins220 processing sites recognized by calpain after induction of excitotoxicity. (a) Immunoblot analysis of primary neuronal cultures (DIV 14) treated with high concentrations of NMDA (100 μM) and glycine (10 μM), herein indicated as NMDA, for 0–6 h. Kidins220 antibodies recognizing a C-terminal peptide (amino acids 1746–1762; Kid-Ct) or the N-terminal region (amino acids 1–402; Kid-Nt), or that specific for the protein neuronal-specific enolase (NSE) were used. Bands corresponding to endogenous full-length (FL) Kidins220 or its different processing N-terminal fragments (Nt-0/Nt-9) are indicated. […]
(a) Cell-membrane peptide Tat-K contains from the N- to the C-terminus amino acids 47–57 of the HIV-1 Tat protein (italic) followed by two proline linker residues and rat Kidins220 amino acids 1668–1681 (bold), which include the major calpain cleavage site (arrow). […] Results were analyzed by immunoblot with Kidins220 (Kid-Ct), spectrin and NSE antibodies. […] Primary cultures of neurons (DIV 14) were incubated with 5, 10 or 25 μM of FITC-labeled control peptide (FITC-Tat-S) for 2, 4 or 6 h and pictures were taken in a conventional fluorescence microscope. […] Cortical neurons were pre-incubated for 1 h with 10 or 25 μM of Tat-K (K) or Tat-S (S) before NMDA addition for 4 h and analyzed by immunoblot with Kidins220 (Kid-Ct), spectrin and NSE antibodies. […]

cortical neurons = experiment: Calcein-AM/propidium iodide staining of viable and dead neurons after excitotoxicity; format: cell-based, rat; settings: peptide 25 μM pre-incubated 1 h, NMDA 4 h; mean ± S.E.M., n=7
Protocol: Figure 5 Neuroprotective effect exerted by Tat-K transduction on excitotoxic neuronal death. (a) Effect of Tat-K on cell death induced by NMDAR overactivation. Primary cultures of cortical neurons (DIV 14) were pre-incubated for 1 h with Tat-S or Tat-K (25 μM) and treated with NMDA for 4 h or left untreated. Next, viable and dead cells were visualized by simultaneous fluorescence staining with calcein-AM (1 μM; green) and propidium iodide (PI; 0.5 mM; red), respectively, for 15 min at 37 °C in the dark. Representative images for each condition are shown. Scale bar, 25 μm. (b) Quantitation of Tat-K effect on the relative percentage of viable/dead neurons found in excitotoxic conditions. A minimum of five random fields containing at least 500 neurons each were counted per experimental condition. […] Statistical significance was determined by paired Student's t-test (**P<0.01). (c) Quantitation of the effect of Tat-K on neuronal viability after induction of excitotoxicity. […] Neuronal viability was established by MTT reduction assay after subtracting the contribution of the glial cells present in the mixed cultures to absorbance as indicated in the Methods section. […] Statistical significance was determined by paired Student's t-test (*P<0.05, **P<0.01) […]

Compound: CC(C)[C@H](NC(=O)OCc1ccccc1)C(=O)N[C@H](C=O)Cc1ccccc1 [CiIII, carbobenzoxy–valinyl–phenylalaninal] (Cbz-Val-Phe-aldehyde)
- Effect on calpain I cleavage of Kidins220 (decrease of FL-Kidins220 and accumulation of Ct-0) (Kidins220 [1]): inhibited
- Effect on NMDA-induced Kidins220 processing (Nt-1/Nt-9 production) (Kidins220 [2]): strongly prevented NMDA-induced processing

Compound: YGRKKRRQRRRPPLNRTPSTVTLNNNT [Tat-K]
- Viable neurons (calcein-AM) relative to total number of neurons (cortical neurons): 40±7%

Compound: YGRKKRRQRRRPPNTTTLSNLPTNVRN [Tat-S]
- Viable neurons (calcein-AM) relative to total number of neurons (cortical neurons): 23±7%
